Results on nine compounds are retold here after ChEMBL document CHEMBL5465560, “Selectivity Literature for EUbOPEN Chemogenomic Library” (2024).

The target of experiment [1] is BMP-2-inducible protein kinase (Homo sapiens) (UniProt Q9NSY1). The experiment in a line: Selectivity interaction (Kinase panel (DSF assay)) EUB0001489b BMP2K. (In general: DSF heats the sample and reads unfolding from a dye or from intrinsic fluorescence.)
Experiment [2] deals with Ribosomal protein S6 kinase alpha-5 (Homo sapiens) (UniProt O75582). The experiment can be described thus: Selectivity interaction (KinomeScan (DiscoverX)) EUB0000695a RPS6KA5. To be noted: at 100 nM.
For experiment [3], the target named is Serine/threonine-protein kinase NIM1 (Homo sapiens, UniProt Q8IY84). The experiment can be described thus: Selectivity interaction (KinomeScan (DiscoverX)) EUB0000607a NIM1K. To be noted: at 10 µM.
Sequence of Serine/threonine-protein kinase NIM1 (Q8IY84 whole entry): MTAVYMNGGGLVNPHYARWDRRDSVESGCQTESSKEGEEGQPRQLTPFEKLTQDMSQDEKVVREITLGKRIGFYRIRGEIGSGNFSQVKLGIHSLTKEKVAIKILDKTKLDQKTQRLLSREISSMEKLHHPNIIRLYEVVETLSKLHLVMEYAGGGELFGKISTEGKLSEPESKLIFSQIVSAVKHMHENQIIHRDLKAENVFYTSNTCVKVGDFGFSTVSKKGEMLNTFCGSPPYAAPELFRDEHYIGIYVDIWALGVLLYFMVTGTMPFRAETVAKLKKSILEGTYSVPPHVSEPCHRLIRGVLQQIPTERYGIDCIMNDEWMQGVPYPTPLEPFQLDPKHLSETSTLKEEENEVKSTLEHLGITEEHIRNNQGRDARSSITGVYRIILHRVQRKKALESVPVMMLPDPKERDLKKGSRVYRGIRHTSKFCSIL
Experiment [4] deals with Cyclin-dependent kinase 1/cyclin B (Homo sapiens) (UniProt P06493+P14635+Q8WWL7+O95067). The experiment in a line: Selectivity interaction (SelectScreen profiling (Invitrogen)) EUB0000607a CDK1. Format: protein-complex assay. To be noted: at 2 µM.
Experiment [5] concerns the target Cyclin-dependent kinase 8 (Homo sapiens, UniProt P49336). The experiment can be described thus: Selectivity interaction (Kinase panel (Invitrogen)) EUB0000639a CDK8. To be noted: at 200 nM.
In experiment [6] the target is Casein kinase I isoform alpha (Homo sapiens, UniProt P48729). The experiment in a line: Selectivity interaction (ActivX KiNativ screen (kinase selectivity in THP-1 cell lysates)) EUB0000639a CSNK1A1. Conditions: lysate. Format: subcellular.
Sequence of Casein kinase I isoform alpha (P48729 2-337 limits assumed): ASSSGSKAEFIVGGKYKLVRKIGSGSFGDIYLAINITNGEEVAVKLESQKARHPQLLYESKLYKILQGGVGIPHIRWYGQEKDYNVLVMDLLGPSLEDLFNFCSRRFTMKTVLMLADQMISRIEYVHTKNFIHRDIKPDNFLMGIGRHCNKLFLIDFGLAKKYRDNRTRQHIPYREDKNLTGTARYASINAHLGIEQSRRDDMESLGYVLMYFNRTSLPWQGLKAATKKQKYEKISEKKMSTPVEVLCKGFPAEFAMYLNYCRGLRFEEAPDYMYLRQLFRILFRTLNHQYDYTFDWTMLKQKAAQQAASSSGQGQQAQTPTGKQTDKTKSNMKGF
In experiment [7] the target is Tyrosine-protein kinase Lck (Homo sapiens, UniProt P06239). The experiment in a line: Selectivity interaction (KinomeScan (DiscoverX)) EUB0000045b LCK.
Sequence of Tyrosine-protein kinase Lck (P06239 2-509 limits assumed): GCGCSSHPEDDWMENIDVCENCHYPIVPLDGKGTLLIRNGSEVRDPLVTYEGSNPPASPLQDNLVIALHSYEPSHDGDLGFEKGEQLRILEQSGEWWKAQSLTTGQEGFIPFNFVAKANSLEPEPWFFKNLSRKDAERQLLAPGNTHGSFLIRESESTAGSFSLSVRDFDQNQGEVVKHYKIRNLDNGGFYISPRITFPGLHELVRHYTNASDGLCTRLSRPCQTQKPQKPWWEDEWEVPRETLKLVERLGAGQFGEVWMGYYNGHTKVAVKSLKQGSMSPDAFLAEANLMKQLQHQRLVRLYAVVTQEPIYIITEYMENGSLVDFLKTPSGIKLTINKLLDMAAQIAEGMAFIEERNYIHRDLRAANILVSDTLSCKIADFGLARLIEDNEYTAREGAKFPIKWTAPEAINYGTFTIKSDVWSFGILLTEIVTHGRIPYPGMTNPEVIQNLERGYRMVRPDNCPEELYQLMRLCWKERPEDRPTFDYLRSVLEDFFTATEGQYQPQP
Experiment [8] addresses Serine/threonine-protein kinase Nek6 (Homo sapiens) (UniProt Q9HC98). The experiment in a line: Selectivity interaction (KinomeScan (DiscoverX)) EUB0000045b NEK6.
Experiment [9] concerns the target T1, Dual serine/threonine and tyrosine protein kinase (Homo sapiens) (UniProt Q6XUX3).
T1 sequence (whole entry): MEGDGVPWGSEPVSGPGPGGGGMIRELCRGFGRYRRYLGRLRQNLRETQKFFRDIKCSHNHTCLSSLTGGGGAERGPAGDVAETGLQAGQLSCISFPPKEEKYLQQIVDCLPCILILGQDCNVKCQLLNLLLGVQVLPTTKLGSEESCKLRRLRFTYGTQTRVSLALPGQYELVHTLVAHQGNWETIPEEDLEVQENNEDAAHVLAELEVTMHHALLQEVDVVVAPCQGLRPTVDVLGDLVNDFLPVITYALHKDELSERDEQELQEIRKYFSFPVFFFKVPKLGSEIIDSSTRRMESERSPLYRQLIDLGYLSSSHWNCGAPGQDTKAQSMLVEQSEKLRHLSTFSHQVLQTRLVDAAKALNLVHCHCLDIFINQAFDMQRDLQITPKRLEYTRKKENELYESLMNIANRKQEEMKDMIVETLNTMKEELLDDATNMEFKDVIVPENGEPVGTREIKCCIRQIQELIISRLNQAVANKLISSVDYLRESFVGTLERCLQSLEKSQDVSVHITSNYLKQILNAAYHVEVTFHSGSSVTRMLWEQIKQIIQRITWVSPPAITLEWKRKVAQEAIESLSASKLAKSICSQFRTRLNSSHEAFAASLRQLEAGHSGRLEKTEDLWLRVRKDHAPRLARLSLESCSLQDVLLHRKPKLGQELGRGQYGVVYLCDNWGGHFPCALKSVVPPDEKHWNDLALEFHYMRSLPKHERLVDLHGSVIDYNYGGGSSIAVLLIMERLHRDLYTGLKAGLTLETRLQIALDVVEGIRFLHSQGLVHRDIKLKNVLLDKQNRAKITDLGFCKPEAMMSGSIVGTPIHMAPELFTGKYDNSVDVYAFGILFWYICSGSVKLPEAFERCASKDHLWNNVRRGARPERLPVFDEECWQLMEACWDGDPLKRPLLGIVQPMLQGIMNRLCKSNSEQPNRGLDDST
The experiment in a line: Selectivity interaction (KinomeScan (DiscoverX)) EUB0000045b DSTYK.

Experiment [10] has as its target Coiled-coil domain-containing protein 6/Tyrosine-protein kinase receptor RET (Homo sapiens) (UniProt P07949+Q16204). The experiment in a line: Selectivity interaction (ProQinase) EUB0000171b RET. Format: protein assay.
In experiment [11] the target is Calcium/calmodulin-dependent protein kinase kinase 1 (Homo sapiens) (UniProt Q8N5S9). The experiment in a line: Selectivity interaction (ProQinase) EUB0000171b CAMKK1.
Sequence of Calcium/calmodulin-dependent protein kinase kinase 1 (Homo sapiens) (Q8N5S9 whole entry, looked up): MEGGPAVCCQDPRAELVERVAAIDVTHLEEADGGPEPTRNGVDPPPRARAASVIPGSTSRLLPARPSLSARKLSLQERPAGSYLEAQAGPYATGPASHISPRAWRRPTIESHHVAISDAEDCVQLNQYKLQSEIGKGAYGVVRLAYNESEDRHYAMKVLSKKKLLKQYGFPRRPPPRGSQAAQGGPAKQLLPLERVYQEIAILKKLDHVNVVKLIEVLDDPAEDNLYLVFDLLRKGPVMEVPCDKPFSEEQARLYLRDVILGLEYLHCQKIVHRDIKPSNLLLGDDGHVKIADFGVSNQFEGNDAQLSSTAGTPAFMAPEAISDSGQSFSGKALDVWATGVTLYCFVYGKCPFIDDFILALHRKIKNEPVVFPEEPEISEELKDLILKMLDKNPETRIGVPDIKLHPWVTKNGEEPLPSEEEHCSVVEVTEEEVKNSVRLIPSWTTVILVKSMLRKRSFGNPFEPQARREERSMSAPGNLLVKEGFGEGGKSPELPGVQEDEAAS
The target of experiment [12] is T2, Ephrin type-B receptor 4 (Homo sapiens) (UniProt P54760).
T2 sequence (whole entry): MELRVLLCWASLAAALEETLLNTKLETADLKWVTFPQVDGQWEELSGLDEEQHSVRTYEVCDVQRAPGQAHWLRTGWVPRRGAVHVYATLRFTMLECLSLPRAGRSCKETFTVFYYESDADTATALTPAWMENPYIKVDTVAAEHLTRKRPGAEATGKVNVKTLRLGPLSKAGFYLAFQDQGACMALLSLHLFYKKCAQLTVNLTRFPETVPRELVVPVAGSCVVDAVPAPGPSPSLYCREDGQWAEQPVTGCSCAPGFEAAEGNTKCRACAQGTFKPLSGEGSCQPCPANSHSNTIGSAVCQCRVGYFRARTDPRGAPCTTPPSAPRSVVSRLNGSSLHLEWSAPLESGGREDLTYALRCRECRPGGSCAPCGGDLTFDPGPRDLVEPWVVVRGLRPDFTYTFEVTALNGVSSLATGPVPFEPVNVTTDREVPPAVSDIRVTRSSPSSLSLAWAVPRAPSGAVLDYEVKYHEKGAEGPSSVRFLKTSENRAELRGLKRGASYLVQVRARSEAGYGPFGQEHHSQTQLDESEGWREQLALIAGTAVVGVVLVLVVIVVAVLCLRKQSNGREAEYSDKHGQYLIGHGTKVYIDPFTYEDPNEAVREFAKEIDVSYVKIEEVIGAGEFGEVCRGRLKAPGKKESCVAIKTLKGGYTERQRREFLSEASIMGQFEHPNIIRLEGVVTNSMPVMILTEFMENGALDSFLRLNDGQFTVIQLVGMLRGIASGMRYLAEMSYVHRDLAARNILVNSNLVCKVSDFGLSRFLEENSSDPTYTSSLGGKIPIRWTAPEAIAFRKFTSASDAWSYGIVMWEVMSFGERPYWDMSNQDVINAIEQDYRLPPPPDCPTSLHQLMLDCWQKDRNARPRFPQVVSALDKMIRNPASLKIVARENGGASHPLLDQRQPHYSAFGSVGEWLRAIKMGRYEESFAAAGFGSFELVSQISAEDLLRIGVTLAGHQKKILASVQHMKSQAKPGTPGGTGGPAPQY
The experiment in a line: Selectivity interaction (Upstate Kinase Profiler service (Millipore)) EUB0000056c EPHB4. To be noted: at 1 µM.

For experiment [13], the target named is Protein polybromo-1 (Homo sapiens) (UniProt Q86U86). The experiment can be described thus: Selectivity interaction (Bromodomain panel (DSF asssay)) EUB0000270b PBRM1.
The target in experiment [14] is NT-3 growth factor receptor (Homo sapiens, UniProt Q16288). The experiment can be described thus: Selectivity interaction (KinomeScan (DiscoverX)) EUB0001079a NTRK3. Conditions: at 1 µM.
Sequence of NT-3 growth factor receptor (Q16288 32-839 limits assumed): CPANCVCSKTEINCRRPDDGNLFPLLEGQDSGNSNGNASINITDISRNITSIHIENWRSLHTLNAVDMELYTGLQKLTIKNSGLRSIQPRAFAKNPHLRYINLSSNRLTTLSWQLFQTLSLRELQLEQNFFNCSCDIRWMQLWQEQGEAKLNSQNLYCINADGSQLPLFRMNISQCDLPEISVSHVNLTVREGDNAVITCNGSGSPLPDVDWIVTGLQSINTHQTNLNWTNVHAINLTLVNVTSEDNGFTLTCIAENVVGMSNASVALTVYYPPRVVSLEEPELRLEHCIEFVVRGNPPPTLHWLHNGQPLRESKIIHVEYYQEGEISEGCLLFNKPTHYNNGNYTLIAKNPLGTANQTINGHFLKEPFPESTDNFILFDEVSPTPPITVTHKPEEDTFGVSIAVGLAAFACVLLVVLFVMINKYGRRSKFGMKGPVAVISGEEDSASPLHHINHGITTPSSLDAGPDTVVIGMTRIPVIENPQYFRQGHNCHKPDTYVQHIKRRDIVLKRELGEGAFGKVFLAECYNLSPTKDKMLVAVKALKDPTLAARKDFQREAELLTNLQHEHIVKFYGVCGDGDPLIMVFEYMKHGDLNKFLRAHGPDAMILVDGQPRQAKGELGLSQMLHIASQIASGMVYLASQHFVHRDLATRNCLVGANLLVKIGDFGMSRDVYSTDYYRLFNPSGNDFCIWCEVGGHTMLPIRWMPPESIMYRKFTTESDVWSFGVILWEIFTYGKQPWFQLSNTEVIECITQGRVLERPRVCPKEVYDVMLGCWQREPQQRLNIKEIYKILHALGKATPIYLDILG

Sequence of Coiled-coil domain-containing protein 6/Tyrosine-protein kinase receptor RET (Homo sapiens) (P07949 29-1114 limits assumed): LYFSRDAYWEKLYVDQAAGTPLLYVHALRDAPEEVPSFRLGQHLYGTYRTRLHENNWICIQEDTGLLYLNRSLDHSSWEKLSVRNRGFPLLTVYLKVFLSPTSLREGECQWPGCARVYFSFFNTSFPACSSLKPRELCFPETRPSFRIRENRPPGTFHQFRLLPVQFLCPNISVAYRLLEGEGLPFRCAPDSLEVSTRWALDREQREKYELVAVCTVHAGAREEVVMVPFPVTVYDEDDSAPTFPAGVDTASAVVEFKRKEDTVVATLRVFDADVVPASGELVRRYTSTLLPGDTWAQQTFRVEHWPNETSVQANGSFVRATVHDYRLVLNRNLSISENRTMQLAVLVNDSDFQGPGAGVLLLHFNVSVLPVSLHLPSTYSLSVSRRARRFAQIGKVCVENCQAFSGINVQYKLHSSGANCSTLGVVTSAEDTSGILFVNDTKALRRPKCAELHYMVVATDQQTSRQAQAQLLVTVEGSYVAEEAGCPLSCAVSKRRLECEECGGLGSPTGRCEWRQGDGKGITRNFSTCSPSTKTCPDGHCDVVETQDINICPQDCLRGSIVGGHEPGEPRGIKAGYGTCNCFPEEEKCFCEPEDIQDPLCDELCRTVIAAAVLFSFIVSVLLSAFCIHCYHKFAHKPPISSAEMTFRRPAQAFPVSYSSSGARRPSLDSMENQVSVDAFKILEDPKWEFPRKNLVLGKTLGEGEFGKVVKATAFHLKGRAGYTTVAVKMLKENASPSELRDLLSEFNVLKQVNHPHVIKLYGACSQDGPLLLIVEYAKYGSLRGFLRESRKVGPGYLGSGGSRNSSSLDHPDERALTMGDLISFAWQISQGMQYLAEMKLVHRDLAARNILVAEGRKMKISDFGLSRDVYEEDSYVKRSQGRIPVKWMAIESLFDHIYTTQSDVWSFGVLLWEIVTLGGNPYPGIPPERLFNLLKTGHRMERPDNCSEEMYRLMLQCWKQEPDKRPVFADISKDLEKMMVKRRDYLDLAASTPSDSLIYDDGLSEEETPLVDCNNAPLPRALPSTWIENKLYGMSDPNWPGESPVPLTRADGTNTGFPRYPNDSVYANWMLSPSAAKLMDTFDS
Sequence of Coiled-coil domain-containing protein 6/Tyrosine-protein kinase receptor RET (Homo sapiens) (Q16204 2-474 partner limits assumed): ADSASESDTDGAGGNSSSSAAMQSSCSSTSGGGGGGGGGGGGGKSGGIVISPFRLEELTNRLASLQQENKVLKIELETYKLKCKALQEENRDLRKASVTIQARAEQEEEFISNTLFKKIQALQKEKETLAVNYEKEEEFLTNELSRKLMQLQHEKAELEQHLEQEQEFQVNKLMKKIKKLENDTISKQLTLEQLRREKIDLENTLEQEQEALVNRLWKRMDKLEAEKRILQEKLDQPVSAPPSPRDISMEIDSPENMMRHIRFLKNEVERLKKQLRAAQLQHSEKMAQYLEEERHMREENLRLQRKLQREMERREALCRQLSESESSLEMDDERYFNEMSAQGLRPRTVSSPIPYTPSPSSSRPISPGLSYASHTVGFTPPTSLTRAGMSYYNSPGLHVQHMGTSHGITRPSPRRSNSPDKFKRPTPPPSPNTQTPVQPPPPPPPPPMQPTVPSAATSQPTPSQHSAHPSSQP
Sequence of Serine/threonine-protein kinase Nek6 (Homo sapiens) (Q9HC98 whole entry): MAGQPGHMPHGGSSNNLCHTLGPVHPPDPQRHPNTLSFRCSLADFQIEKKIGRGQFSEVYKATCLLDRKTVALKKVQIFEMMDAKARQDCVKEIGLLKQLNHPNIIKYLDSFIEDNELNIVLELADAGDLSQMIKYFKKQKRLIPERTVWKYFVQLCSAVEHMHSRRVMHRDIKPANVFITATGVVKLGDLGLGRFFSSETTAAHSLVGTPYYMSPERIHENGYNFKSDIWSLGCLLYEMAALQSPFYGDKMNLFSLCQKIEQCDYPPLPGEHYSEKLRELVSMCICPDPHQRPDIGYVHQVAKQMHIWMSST
Sequence of Cyclin-dependent kinase 8 (P49336 whole entry, canonical isoform): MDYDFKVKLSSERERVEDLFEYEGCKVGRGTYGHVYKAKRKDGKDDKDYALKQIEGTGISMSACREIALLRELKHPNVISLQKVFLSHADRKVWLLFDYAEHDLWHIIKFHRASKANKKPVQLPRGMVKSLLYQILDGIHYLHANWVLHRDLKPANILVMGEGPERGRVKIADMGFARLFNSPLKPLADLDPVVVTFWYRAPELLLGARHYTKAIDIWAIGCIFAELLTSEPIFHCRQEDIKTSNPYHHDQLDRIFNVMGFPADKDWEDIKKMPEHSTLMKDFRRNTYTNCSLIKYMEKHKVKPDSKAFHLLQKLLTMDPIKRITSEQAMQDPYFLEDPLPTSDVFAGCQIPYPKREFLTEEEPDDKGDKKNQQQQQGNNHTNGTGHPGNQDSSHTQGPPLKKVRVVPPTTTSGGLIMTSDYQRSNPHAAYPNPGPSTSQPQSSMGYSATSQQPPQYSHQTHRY

Consider `CN1CCN(C(=O)c2ccc3cc2OCCOCCNc2ccn4ncc-3c4n2)CC1`, for which the dTM in [1] was 6.8 K.

For `Cc1cc(F)c(C(=O)Nc2cccc(-c3nncn3C(C)C)n2)cc1-n1cnc(C2CC2)c1`, the % of control in experiment [2] came to 100%.

In the case of `CNC(=O)Nc1ccc(-c2nc(N3CC4CCC(C3)O4)c3cnn(C4CCC5(CC4)OCCO5)c3n2)cc1`, the % of control in experiment [3] is 100%. In addition, the % of inhibition in experiment [4] was 6%.

Take `CC[C@@H]1[C@H](F)C(=O)N[C@@H]1COc1nccc2cc(C(N)=O)c(OC)cc12` [ZIMLOVISERTIB]: the % of inhibition in experiment [5] is 40.1%; in [6] (at 0.01 µM), -11.5%; in [6] (at 0.04 µM), -1%; in experiment [6] (at 0.2 µM), -9.3%; in experiment [6] (at 1 µM), -0.4%; in experiment [6] (at 5 µM) it was 16.4%.

As to `C=CC(=O)Nc1cc(-n2c(=O)ccc3cnc4ccc(-c5ccc(NS(C)(=O)=O)cc5)cc4c32)ccc1C`, the % of control in [7] (at 1 µM) was found to be 89%; in [7] (at 10 µM), 80%; in experiment [8] (at 1 µM) it was 100%; in experiment [8] (at 10 µM) it was 74%; in experiment [9] (at 1 µM), 100%; in [9] (at 10 µM), 100%.

For `C=CC(=O)Nc1cccc(C(=O)Nc2ccc(Nc3cc(-c4[nH]c(SC)nc4C)ccn3)cc2)c1`, the % of control in experiment [10] (at 1 µM) was determined as 84%; in experiment [10] (at 5 µM) it was 84%; in [11] (at 1 µM) it was 98%; in experiment [11] (at 5 µM), 108%.

Turning to `Cc1ccc(-c2ccc3c(ccc4sc5c(c43)NC[C@@H](C)NC5=O)n2)cn1`, the % of inhibition in experiment [12] is -11%.

`Cc1cc(CN)cc(C)c1-c1ncn(C)c1-c1cncn1C` registered a dTM in experiment [13] of -0.44 K.

In experiment [14], `Nc1cnc(N2CCc3cc(S(=O)(=O)Nc4c(F)cc(Cl)cc4F)cc(N4CCCC4=O)c32)nc1` [TP-020n] came in with a % of control of 97%.
